According to US12551576B2, “Chemiluminescent probes” (The General Hospital Corporation, priority 2020, dated 2026):
Each block holds one molecule with its values, some of them ahead of it.

Legend:
[1] = Fluorescence and chemiluminescence spectral studies; type: physicochemical
Procedure: Materials and Methods: reagents used for the synthesis were purchased from Sigma-Aldrich and used without further purification. Column chromatography was performed on a glass column slurry-packed with silica gel (60 Å, […]; SiliCycle Inc.). Recombinant Aβ peptide (1-40/42) were purchased from rPeptide (A-1163-1). Aβ aggregates for in vitro studies were generated by slow stirring of Aβ40 in PBS buffer for 3 days at room temperature. ^1H and ^13C NMR spectra were recorded at 500 MHz and 125 MHz on Bruker spectrometers in CDCl3, CD3OD or DMSO-d6 solutions at room temperature with tetramethylsilane (TMS, δ=0) as an internal standard. Liquid chromatography-mass spectrometry (LC-MS) was performed using an Agilent 1200 Series apparatus with an LC/MSD trap and Daly conversion dynode detector with UV detection at 254 nm. Fluorescence measurements were carried out using an F-7100 fluorescence spectrophotometer (Hitachi). Transgenic female 5×FAD mice and age-matched wild-type female mice were purchased from Jackson Laboratory. All animal experiments were approved by the Institutional Animal Use and Care Committee at Massachusetts General Hospital. The IVIS Spectrum animal imaging system (PerkinElmer) was used for in vitro and in vivo imaging.
Fluorescence spectral studies: Normally, all chemiluminescent molecules are fluorescent. The excitation and emission spectra of ADLumin-X were recorded and the emission peak of ADLumin-1 was around 590 nm (FIG. 1D) in DMSO, which is considerably longer than most of the commercially available chemiluminescence probes. The emission of ADLumin-2 is longer than that of ADLumin-1, due to its additional double-bond. (the emission peak of ADLumin-2 was 20 nm longer). […] Based on this fact, ADLumin-1 was used throughout this example, due to its high QY.
Chemiluminescence spectral studies: ADLumin-1 is stable in PBS buffer and organic solvents, including acetonitrile, dichloromethane and methanol. […] Without being bound by any theory, it is believed that the luminescence was due to the auto-oxidation of ADLumin-1. Although the mechanism of chemiluminescence of IPO derivatives has been studied, the mechanism of auto-oxidation has been rarely explored. In the course of the experiments, ADLumin-1 emitted very strong luminescence in pure DMSO (FIG. 2b). Unexpectedly, if the ADLumin-1 DMSO solution was stirred, even stronger luminescence can be detected (3.4-fold in FIG. 2b). Without being bound by any theory, it is believed that the luminescence was related to oxygen levels in DMSO. […] However, the increasing-fold decreased with cycles (FIG. 2c). […] Since no ROS were added into the DMSO solution, it is reasonable to infer that the auto-oxidation of ADLumin-1 was oxygen-level dependent. It is worthy to note that green fluorescent protein and luciferase/luciferin also dependent on oxygen for their proper imaging functions.

misfoldons in serum = assay: ThT test of misfoldons in serum; parameters: species or system human; details: some misfoldons
Excerpt: However, the detected difference was much smaller than that by ADLumin-1.

PA-K2 = assay: ThT fluorescence test with PA-K and PA-K2; type: binding
Aβ40 aggregates = Aβ40 aggregates (Homo sapiens, UniProt P05067); assay: In vitro chemiluminescence study with Aβ aggregates in PBS; type: binding; details: pH 7.4
Aβ40 aggregates, sequence (P05067 672-711 limits assumed): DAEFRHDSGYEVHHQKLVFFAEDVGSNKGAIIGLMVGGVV

quantum yield ratio ΦADLumin-1/ΦADLumin-2 [1]: 1.5
emission peak longer than that of ADLumin-1 ([1]; fluorescence, DMSO): 20 nm
Molecule: Cc1nc2c[nH]c(/C=C/C=C/C=C/c3ccc(N(C)C)cc3)cn-2c1=O [ADLumin-2, 6-((1E,3E,5E)-6-(4-(dimethylamino)phenyl)hexa-1,3,5-trien-1-yl)-2-methylimidazo[1,2-a]pyrazin-3(7H)-one]

Molecule: Cc1ccc2c(c1)sc(-c1ccc(N(C)C)cc1)[n+]2C.[Cl-] [ThT, Thioflavin T]
ThT signal for misfoldons in serum (misfoldons in serum): slightly higher signal
difference lower than the difference provided by ADLumin-1 (PA-K2): 11.8 fold
fluorescence difference between PA-K and PA-K2 (PA-K2; ThT 0.01 mg/ml): about 4.01 fold
peptide concentration at which the difference PA-K vs PA-K2 is detected (PA-K2; fluorescence): 0.1 mg/mL

Molecule: MCLA [reference compound]
chemiluminescence signal with Aβs (Aβ40 aggregates): significantly reduced signal

Molecule: firefly luciferin [reference compound]
emission peak (FWHM comparison) [1]: 570 nm
full width at half-maximum (FWHM) [1]: 83 nm
